Where a SMILES comes first, the peptide text is derived from it.
Key:
HSP-72 [1] = assay: In-vitro model of PD: HSP-72 expression by Western blotting; format: cell-based, human
Description: Immortalized human mesothelial cells […], ATCC CRL-9444) were cultured in M199/MCDB 105 medium (1:1) supplemented with 100 units/ml penicillin, 100 µg/ml streptomycin and 10% FCS. Cultures were kept in 75 cm^2 tissue culture flasks (Falcon, Becton Dickinson, Oxnard, Calif.) at 37° C. in 5% CO2 and passaged by regular trypsinization. Medium was changed every two to three days. Confluence was reached on average after 6 to 7 days. Confluent cultures were then exposed for 120 minutes to standard glucose-monomer and acidic lactate-based PDF (Fresenius 2, Bad Homburg, Germany), containing 1.5% anhydrous dextrose at pH 5.5, with or without addition of cytoprotective compound ([…] to 20 mM) and allowed to recover in regular growth medium for 16 hours. Control cultures were kept in regular culture media at 37° C. and underwent “sham media changes”, i.e.: exposure to PDF was paralleled by exposure to control medium. Western blotting: Protein content of mesothelial cell harvests was determined by Bradford assay (BioRad) and equal amounts of protein samples (5 μg/lane) were separated by standard SDS-PAGE using a Pharmacia Multiphore II unit. Size-fractionated proteins were transferred to PVDF membranes by semi-dry transfer in a Pharmacia Multiphore II Novablot unit. Membranes were blocked in 5% dry milk in TBS-Tween (10 mM Tris, 150 mM NaCl, 0.05% Tween 20, pH 8.0). Membranes were incubated with the HSP-72 antibody (SPA 810, Stressgen, B.C., Canada). Detection was accomplished by incubation with secondary, peroxidase-coupled antibodies (Sigma, USA) and enhanced chemiluminescence (ECL) using ECL Western blotting analysis system and protocols (Renaissance, NEN-Life Science Products, Boston, Mass., USA). Densitometry was performed with image analysis software (Molecular Analyst software, BioRad, USA). Differential expression of HSP-72 was derived from the ratio of specific signals in the linear range of the protein/signal intensity relationship, normalized to an internal standard, and compared between parallel experiments.

mesothelial cells [2] = assay: In-vivo acute rat model of PD: mesothelial cell detachment; parameters: species or system Sprague Dawley rats; settings: 4 hr dwell, intraperitoneal PDF with or without L-glutamine, mean+/-S.D.
Description: (§2) The studies were carried out on adult male inbred Sprague Dawley rats (average weight 310 g).
After introduction of anaesthesia (ketamine 100 mg/kg and 5 mg/kg xylazine, intramusculary) the animals were placed on a heated small animal operating table. A sterile catheter was inserted into the peritoneal cavity through a small abdominal midline incision and 35 ml of test fluid (PDF with or without addition of L-glutamine at 4-10 mM) were slowly infused in 45-60 secs. The animal was gently moved, a small volume of peritoneal fluid aspirated, the catheter withdrawn and the abdomen sutured. Animals awoke within 20 minutes after the procedure and had free access to food and tap water. At 4 hours after the intraperitoneal injection animals were again anaesthetized, another small volume of peritoneal fluid was aspirated and animals were sacrificed by cardial puncture and exsanguinations. Thereafter, the abdomen was opened by a midline incision and the complete intraperitoneal fluid gently collected. The volumes of the collected fluids were recorded, and total cell count and differential counts at the two time pints (0 and 4 hours) were assessed by hand count after giemsa staining and by machine count by a coulter counter. Total number of detached mesothelial cells was then computed for each rat. […]

HSP-72 [3] = assay: In-vivo acute rat model of PD: HSP-72 expression in harvested mesothelial cells; parameters: species or system Sprague Dawley rats; settings: 4 hr dwell, L-glutamine supplemented PDF vs standard PDF
Description: After introduction of anaesthesia (ketamine 100 mg/kg and 5 mg/kg xylazine, intramusculary) the animals were placed on a heated small animal operating table. A sterile catheter was inserted into the peritoneal cavity through a small abdominal midline incision and 35 ml of test fluid (PDF with or without addition of L-glutamine at 4-10 mM) were slowly infused in 45-60 secs. The animal was gently moved, a small volume of peritoneal fluid aspirated, the catheter withdrawn and the abdomen sutured. Animals awoke within 20 minutes after the procedure and had free access to food and tap water. At 4 hours after the intraperitoneal injection animals were again anaesthetized, another small volume of peritoneal fluid was aspirated and animals were sacrificed by cardial puncture and exsanguinations. Thereafter, the abdomen was opened by a midline incision and the complete intraperitoneal fluid gently collected. The volumes of the collected fluids were recorded, and total cell count and differential counts at the two time pints (0 and 4 hours) were assessed by hand count after giemsa staining and by machine count by a coulter counter. […]
Western blotting: Protein content of mesothelial cell harvests was determined by Bradford assay (BioRad) and equal amounts of protein samples (5 μg/lane) were separated by standard SDS-PAGE using a Pharmacia Multiphore II unit. […]

[4] = tested on: Immortalized human mesothelial cells (Met5A, ATCC CRL-9444); assay: In-vitro model of PD: viability by LDH release; format: cell-based; settings: for LDH release: % of negative control, mean+/-S.D.
Description: Immortalized human mesothelial cells (Met5A, ATCC CRL-9444) were cultured in M199/MCDB 105 medium (1:1) supplemented with 100 units/ml penicillin, 100 µg/ml streptomycin and 10% FCS. Cultures were kept in 75 cm^2 tissue culture flasks (Falcon, Becton Dickinson, Oxnard, Calif.) at 37° C. in 5% CO2 and passaged by regular trypsinization. Medium was changed every two to three days. Confluence was reached on average after 6 to 7 days.
Confluent cultures were then exposed for 120 minutes to standard glucose-monomer and acidic lactate-based PDF (Fresenius 2, Bad Homburg, Germany), containing 1.5% anhydrous dextrose at pH 5.5, with or without addition of cytoprotective compound (glutamine at 4 to 20 mM) and allowed to recover in regular growth medium for 16 hours. Control cultures were kept in regular culture media at 37° C. and underwent “sham media changes”, i.e.: exposure to PDF was paralleled by exposure to control medium.
Viability of cells was assessed by lactate dehydrogenase (LDH) analyses. Fifty μl aliquots of supernatants were removed after the described experimental setup and kept on 4° C. until analyzed within 48 hours. Measurements were performed in duplicates with Sigma TOX-7 LDH Kit according to the manufacturer instructions. LDH efflux was calculated as percentage of LDH values measured in each negative control experiment. Induction of HSP was assessed in parallel cultures as described below.

peritoneal membrane = assay: In-vivo acute rat model of PD: barrier function of the peritoneal membrane; parameters: species or system Sprague Dawley rats; settings: 4 hr dwell
Description: as §2
After introduction of anaesthesia (ketamine 100 mg/kg and 5 mg/kg xylazine, intramusculary) the animals were placed on a heated small animal operating table. A sterile catheter was inserted into the peritoneal cavity through a small abdominal midline incision and 35 ml of test fluid (PDF with or without addition of L-glutamine at 4-10 mM) were slowly infused in 45-60 secs. The animal was gently moved, a small volume of peritoneal fluid aspirated, the catheter withdrawn and the abdomen sutured. Animals awoke within 20 minutes after the procedure and had free access to food and tap water. At 4 hours after the intraperitoneal injection animals were again anaesthetized, another small volume of peritoneal fluid was aspirated and animals were sacrificed by cardial puncture and exsanguinations. Thereafter, the abdomen was opened by a midline incision and the complete intraperitoneal fluid gently collected. The volumes of the collected fluids were recorded, and total cell count and differential counts at the two time pints (0 and 4 hours) were assessed by hand count after giemsa staining and by machine count by a coulter counter. Total number of detached mesothelial cells was then computed for each rat.
For testing the barrier function of the peritoneal membrane, creatinine, glucose and total protein were measured in dialysate (D) samples and creatinine in plasma (P) at the end of the protocol. D/P ratios for creatinine and D/D0 ratios for glucose were computed. Peritoneal loss of protein was calculated as final dialysate concentration×final volume.

mesothelial cells [5] = assay: Longterm (24 hours) exposure model, PDF diluted 1:1 with medium: viability by LDH release; format: cell-based; settings: PDF diluted 1:1 with M199, L-alanyl-L-glutamine 0.5 and 10.0 g/L, compared to standard PDF
Text: (§1) The acute recovery experimental setting as described for glutamine as a proof of principle for the cytoprotective PDF, is best representative for the early toxic effects of PDF, mainly due to low pH and lactate as major culprits. Alternate models such as a longterm exposure model to unused PDF diluted 1:1 with normal culture medium are better accepted tools to assess effects of cellular processes that occur in the peritoneum upon more extended exposure to PDF, as occurs in clinical PD. […] Additional control cultures are kept in pure regular culture media at 37° C. for the same time. At the end of the study, cell viability and protein expression are assessed in parallel cultures to identify the cytoprotective PDF.

HSP-72 [6] = assay: Longterm (24 hours) exposure model, PDF diluted 1:1 with medium: HSP-72 expression; format: cell-based; settings: PDF diluted 1:1 with M199, L-alanyl-L-glutamine 0.5 and 10.0 g/L, compared to standard PDF
Text: as §1

Compound | HSP-72 expression (HSP-72 [1]; control conditions (no PDF), relative to control, mean+/-S.D.) | HSP-72 expression (HSP-72 [1]; control conditions, L-glutamine 8 and 10 mM) | HSP-72 expression (HSP-72 [1]; during exposure to PDF for 120 min, relative to control, mean+/-S.D.) | Mesothelial cell detachment (mesothelial cells [2]) | HSP-72 expression in rat mesothelial cells (HSP-72 [3]) | LDH release ([4]; control conditions (no PDF)) | Viability (LDH release) ([4]; control conditions, L-glutamine up to 20 mM) | LDH release ([4]; during exposure to PDF for 120 min, 16 hours recovery) | D/Do glucose (peritoneal membrane) | D/P creatinine (peritoneal membrane) | Net ultrafiltration (peritoneal membrane) [mL] | Protein loss into the dialysate effluate (peritoneal membrane; final dialysate concentration x final volume) [mg] | Viability assessed by LDH release (mesothelial cells [5]) | HSP-72 expression (HSP-72 [6])
NC(=O)CC[C@H](N)C(=O)O [L-glutamine] | 234+/−221% | increased | 1895+/−1928% | 38+/−38 cells | overexpression of HSP-72 | 91+/−7% | unchanged viability | 190+/−19% | 0.469+/−0.04 | 0.375+/−0.11 | 5.4 ± 2.7 | 65 ± 4 |  | 
C[C@H](N)C(=O)N[C@@H](CCC(N)=O)C(=O)O [L-alanyl-L-glutamine] (H-Ala-Gln-OH) |  |  |  |  |  |  |  |  |  |  |  |  | preserved viability | increased
